# Reference: patent US9238005B2, “Dry powder formulations and methods for treating pulmonary diseases” (Pulmatrix Operating Company, Inc., priority 2009, dated 2016)
# Experiments:
# [1] = Heat of solution in HBSS buffer; format: physicochemical; settings: Avg.; for ΔH (kJ/mol) / ΔH (kcal/mol): HBSS buffer, per mol Ca, leucine per mol Leu; for Q / ΔT (deg. C): dissolution in HBSS buffer
# [2] = Volume median geometric diameter (x50/VMGD) and GSD by laser diffraction, HELOS/RODOS; format: physicochemical
# Protocol: Volume median diameter (×50), which may also be referred to as volume median geometric diameter (VMGD), was determined using a laser diffraction technique. […] The RODOS disperser applies a shear force to a sample of particles, controlled by the regulator pressure (typically set at 1.0 bar with orifice ring pressure set at 7 mbar) of the incoming compressed dry air. […] The dispersed particles travel through a laser beam where the resulting diffracted light pattern produced is collected, typically using an R2 lens, by a series of detectors.
# [3] = Fine particle fraction, two-stage collapsed Andersen Cascade Impactor (ACI-2); settings: spray dried from 70% ethanol, 50 g/L
# [4] = Dispersibility from passive dry powder inhalers (CEPM, Dv50, FPF vs inhalation energy); format: physicochemical; settings: for average CEPM, share of capsule fill weight: 9.2 Joules (60 L/min for 2 L); for average Dv50: 9.2 Joules; for Dv50: measured lower energies
# Protocol: The dispersibility of various powder formulations was investigated by measuring the geometric particle size and the percentage of powder emitted from capsules when inhaling on dry powder inhalers with flow rates representative of patient use. The particle size distribution and weight change of the filled capsules were measured for multiple powder formulations as a function of flow rate, inhaled volume and fill weight in 2 passive dry powder inhalers.
# In order to relate the dispersion of powder at different flow rates, volumes, and from inhalers of different resistances, the energy required to perform the inhalation maneuver was calculated and the particle size and dose emission data plotted against the inhalation energy. Inhalation energy was calculated as E=R^2Q^2V where E is the inhalation energy in Joules, R is the inhaler resistance in kPa^1/2/LPM, Q is the steady flow rate in L/min and V is the inhaled air volume in L.
# [5] = high resistance RS-01, 25 mg fill weight
# [6] = high resistance RS-01, 40 mg fill weight
# [7] = RS.01.HR, fill 25 mg, 15 LPM, 4 s, 0.29 J
# [8] = RS.01.HR, fill 25 mg, 20 LPM, 3 s, 0.51 J
# [9] = RS.01.HR, fill 25 mg, 30 LPM, 2 s, 1.15 J
# [10] = RS.01.HR, fill 25 mg, 60 LPM, 2 s, 9.18 J
# [11] = RS.01.HR, fill 40 mg, 15 LPM, 4 s, 0.29 J
# [12] = RS.01.HR, fill 40 mg, 20 LPM, 3 s, 0.51 J
# [13] = RS.01.HR, fill 40 mg, 30 LPM, 2 s, 1.15 J
# [14] = RS.01.HR, fill 40 mg, 60 LPM, 2 s, 9.18 J
# [15] = RS.01.LR, fill 25 mg, 60 LPM, 2 s, 2.85 J
# [16] = RS.01.LR, fill 40 mg, 60 LPM, 2 s, 2.85 J
# [17] = all measured lower energies (<9.2 Joules), 25 and 40 mg fill weights
compound,measurement,setting,value
O.O.[Ca+2].[Cl-].[Cl-] [CaCl2.2H2O],ΔH (kJ/mol),[1],-50.6 kJ/mol
same,ΔH (kcal/mol),[1],-12.1 kcal/mol
same,Q,[1],2.93 cal
same,ΔT (deg. C),[1],0.024 deg. C
CC(C)C[C@H](N)C(=O)O [Leucine],ΔH (kJ/mol),[1],-6 kJ/mol
same,ΔH (kcal/mol),[1],-1.5 kcal/mol
same,Q,[1],0.37 cal
same,ΔT (deg. C),[1],0.003 deg. C
"[Cl-].[Cl-].[Mg+2] [Pure magnesium chloride, magnesium chloride]",median volume particle size,"[2]; spray dried from 70% ethanol, 50 g/L",4 microns
same,median particle size (HELOS/RODOS),"[2]; spray dried from D.I. water, 20 g/L",21 microns
same,fine particle fraction less than 5.6 microns,[3],19%
albuterol sulfate [Micronized Albuterol 073-001-02-039A],"average CEPM, share of capsule fill weight",[4]; [5],93%
same,"average CEPM, share of capsule fill weight",[4]; [6],84%
same,average Dv50,[4]; [5],1.8 μm
same,average Dv50,[4]; [6],1.6 μm
same,Mean CEPM,[4]; [7],3.12 mg
same,Mean Dv50,[4]; [7],16.76 μm
same,"Mean FPF, % < 5 μm",[4]; [7],13.00%
same,Mean CEPM,[4]; [8],5.00 mg
same,Mean Dv50,[4]; [8],8.40 μm
same,"Mean FPF, % < 5 μm",[4]; [8],32.10%
same,Mean CEPM,[4]; [9],7.08 mg
same,Mean Dv50,[4]; [9],3.86 μm
same,"Mean FPF, % < 5 μm",[4]; [9],59.44%
same,Mean CEPM,[4]; [10],23.18 mg
same,Mean Dv50,[4]; [10],1.77 μm
same,"Mean FPF, % < 5 μm",[4]; [10],81.65%
same,Mean CEPM,[4]; [11],2.43 mg
same,Mean Dv50,[4]; [11],17.63 μm
same,"Mean FPF, % < 5 μm",[4]; [11],10.73%
same,Mean CEPM,[4]; [12],4.97 mg
same,Mean Dv50,[4]; [12],6.34 μm
same,"Mean FPF, % < 5 μm",[4]; [12],42.24%
same,Mean CEPM,[4]; [13],8.55 mg
same,Mean Dv50,[4]; [13],3.13 μm
same,"Mean FPF, % < 5 μm",[4]; [13],67.18%
same,Mean CEPM,[4]; [14],33.40 mg
same,Mean Dv50,[4]; [14],1.60 μm
same,"Mean FPF, % < 5 μm",[4]; [14],84.30%
same,Mean CEPM,[4]; [15],15.28 mg
same,Mean Dv50,[4]; [15],2.57 μm
same,"Mean FPF, % < 5 μm",[4]; [15],75.01%
same,Mean CEPM,[4]; [16],18.88 mg
same,Mean Dv50,[4]; [16],2.62 μm
same,"Mean FPF, % < 5 μm",[4]; [16],73.98%
same,CEPM,[4]; [17],below 10 mg
same,"CEPM, share of capsule fill weight",[4]; [17],< 30%
same,Dv50,[4]; 25 mg fill weight,3.9 μm
same,Dv50,[4]; 40 mg fill weight,3.1 μm
